Assays:
Format in all cases: in vivo, rabbit
[1] = test system: alloxan-induced diabetic rabbits; test: Examination of tear secretion (Schirmer's test) in alloxan-induced diabetic rabbits; settings: 1 minute
Procedure: (§1) Alloxan monohydrate (Lot No. DLJ5619, M.W. 160.09 Wako Pure Chemical Industries, LTD.) of 80 mg/kg was dissolved in 2 mL of physiological saline, and the solution was administered once intravenously of male Japanese albino rabbits [Std: JW/CSK] (11-week-old) to induce diabetes.
(§2) Blood glucose was determined once a week on 4 times after administration of alloxan monohydrate: animals having always blood glucose of 300 mg/dL or more were used as diabetic animals in this Experiment.
(§3) [3-(4-Bromo-2-fluorobenzyl)-7-chloro-2,4-dioxo- 1,2,3,4-tetrahydroquinazolin- 1-yl]acetate, an active ingredient of this invention, having aldose reductase-inhibiting effect was used for preparation of a 0.3% eye drops, and the eye drops were used as the test substance. The vehicle control was the vehicle of the eye drops simply without the active ingredient.
At the time of intravenous administration of alloxan, the drug was instilled into both eyes at 30 μL/eye four times a day over 4 consecutive weeks. […]
One hour after the second instillation on the day of examination, each animal was fixed in a stainless steel fixator, and the edge of the Schirmer's test paper (SHOWA YAKUHIN KAKO, Co., Ltd., Lot No.70080) was inserted into the conjunctival sac to cover the ⅓ of the lower eyelid on the ear side. One minute after, the paper was removed, and the length of the moistened part was read from the scale on the paper. […]

[2] = test system: rabbits with dry eye syndrome induced by trigeminal denervation; test: Basal tear secretion in rabbits with dry eye syndrome induced by trigeminal denervation
Text: (§4) Twenty male Japanese albino rabbits [Std:JW/CSK] were used.
(§5) Urethane (ALDRICH, Lot No.069110Q) was intraperitoneally administered at the dose of 1 g/kg to rabbits of which hair at the head after anesthesia had been shaved.
(§6) After disinfection of the shaved area, midline incision of the skin was made from the frontal bone to the ear root, and the periosteum and the muscular tissue around the temporal bone and mandibular articular process were detached. After the detachment, a hole of 2×1.5 cm in size was made in the bone from the parietal medial region to the temporal region by using a bone drill (URAWA KOGYO Co., Ltd., MINITOR.C-130) under the surgical microscope (KONAN CAMERA R& I Inc., PMO-50). Then the dura was detached from the cranial bone while cotton was kept inserted between the temporal bone and the dura. After the detachment was made up to the cranial base, detachment was further made toward the medial border of the petrous part of temporal bone in the cranial cavity, to find the trigeminal nerve in the petrous part. Then the dura of about 1 to 2 mm on the nasal side of the semilunar ganglion was incised. After the incision, the two branches of nerve fascicle, i.e. the first branch of the trigeminal nerve (ocular nerve) and the second branch (maxillary nerve), were pulled laterally and cut with corneoscleral scissors. After confirmation of miosis of the ipsilateral eye immediately after the cut, the cotton kept inserted was removed, and the skin at the head was closed with suture. After the operation, an antibiotic (MYCILLIN SOL®: Meiji) was administered intramuscularly at the dose of 0.1 mL/kg.
(§7) The trigeminal denervation was made only on the left eye side, while the trigeminal denervation on the right eye side or sham operation was not made
(§8) Two-week acclimation period was allowed to pass after the trigeminal denervation.
(§9) [3-(4-Bromo-2-fluorobenzyl)-7-chloro-2,4-dioxo- 1,2,3,4-tetrahydroquinazolin- 1-yl]acetate, an active ingredient of this invention, having aldose reductase-inhibiting effect was used for preparation of 0.03% eye drop, 0.1% eye drop, and 0.3% eye drop, which were used as the test substances. The vehicle control was the base of the eye drops simply without the active ingredient.
(§10) From about 2 weeks after the trigeminal denervation, one of the above-mentioned drugs was instilled at the volume of 30 μL/eye four times a day for 2 consecutive weeks. Five eyes of each of the test substance groups and the control group were examined for the basal tear secretion and the keratoepithelial lesion as follows.
Before the start of instillation (Week 0), and 1 week and 2 weeks after instillation, the basal tear secretion was measured one hour after the second instillation on the day of examination.
Keratoconjunctiva was anesthetized by instillation of 4% lidocaine (Xylocaine® 4% for ophthalmology: Fujisawa Pharmaceutical Co., Ltd.), and the eye drop and the tear around the eyelid were wiped off about 5 minutes later.
When loss of keratoconjunctival esthesia was confirmed with the Cochet-Bonnet type esthesiometer, the edge of the Shirmer's test paper was kept inserted into the conjunctival sac for 5 minutes, and the length of the moistened part was read from the scale on the paper.
The basal tear secretion was expressed by the mean per minute calculated from the 4-minute-value obtained by subtraction of the first-1-minute-value from the 5-minute-value of the Shirmer's test, so that the volume of the tear considered to be retained in the conjunctival sac might be excluded.

[3] = test system: alloxan-induced diabetic rabbits; test: Examination of corneal esthesia (Cochet-Bonnet esthesiometer) in alloxan-induced diabetic rabbits
Procedure: as §1, §2, §3
At the time of intravenous administration of alloxan, the drug was instilled into both eyes at 30 μL/eye four times a day over 4 consecutive weeks. Sixteen eyes of 8 animals in each of the test substance group and the vehicle control group were subjected to the examination of corneal esthesia and the examination of tear secretion as follows.
One hour after the second instillation on the day of examination, each animal was fixed in a stainless steel fixator (SHIBATA GLASS WORKS). The central part, the most sensitive part, of the cornea was stimulated 10 times in rapid sequence with a pressure by applying at the right angle a 30 mm nylon thread (Toray Nylon Monofilament, Type 100, No.0.6, diameter φ: 0.027mm, cross section s: 0.0129) of the Cochet-Bonnet type esthesiometer (Handaya Co., Ltd.) so that the nylon thread might be bent only slightly (pressure: […], measured by Handaya), and the number of blink reflex was taken as the corneal esthesia value. The examination was performed before, 2 weeks after and 4 weeks after administration of alloxan.
In both examinations, the test substance group and the vehicle control group were compared with the Williams's test.

[4] = test system: alloxan-induced diabetic rabbits; test: Repair of the wound of keratoepithelial detachment in alloxan-induced diabetic rabbits; settings: 0.1% eye drop, 30 μL/eye every 4 hours, area immediately after detachment = 100, mean±S.E.
Procedure: Alloxan monohydrate (Lot No. DLJ5619, M.W. 160.09: Wako Pure Chemical Industries, LTD.) of 80 mg/kg was dissolved in 2 mL of physiological saline, and the solution was administered once intravenously of male Japanese albino rabbits [Std: JW/CSK] (11-week-old) to induce diabetes.
Blood glucose was determined weekly after administration of alloxan monohydrate: the mean blood glucose was increased from 142.2±4.7 mg/dL (mean±S.E.; The same is applicable hereinafter.) before administration to 522.5±13.7 mg/dL at 1 week, and this elevated level persisted thereafter. Animals with this alloxan-induced diabetes were used in the experiment. […]
The cornea was stained with fluorescein, and photographs of the anterior ocular segment were taken with the Medical Nikkor Lens attached with a yellow filter (Kodak WRATTEN No.12) and the front part of the flash attached with a blue filter (Kodak WRATTEN No.47). On the projected photographs magnified to the same degree, the stained area was measured with the planimeter. […]
Twelve hours after the keratoepithelial detachment, the area of the wound was measured. Then its relative value was calculated by taking the area of the wound immediately after the keratoepithelial detachment as 100. […]

[5] = test system: rabbits with dry eye syndrome induced by trigeminal denervation; test: Keratoepithelial lesion score in rabbits with dry eye syndrome induced by trigeminal denervation
Text: as §4, §5, §6, §7, §8, §9, §10
Before the start of instillation (Week 0), and 1 week and 2 weeks after instillation, the lesion was evaluated one hour after the first instillation on the day of examination.
Each animal was placed in a stainless steel fixator, and given instillation of 50 μL of the mixture of 1% rose bengal and 1% fluorescein, followed by vital staining of the keratoconjunctival epithelium for evaluation of the extent of lesion according to the scoring system shown in Table 5.

[6] = test system: normal (not diabetic) rabbits; test: Repair of the wound of keratoepithelial detachment in normal rabbits; settings: 0.2% eye drops, 30 μL/eye every 4 hours, area immediately after detachment = 100
Text: In the Experimental Example 1, the influence in rabbits with alloxan-induced diabetes was investigated, while the influence in normal (not diabetic) rabbits was investigated in this Example.
Ten-week-old male New Zealand White rabbits (weighing 2.07±0.11 kg: mean weight at the start of the experiment) were acclimation period for 7 days, while the animals were examined for the general signs including diarrhea and body weight, etc., and the anterior ocular segment was also observed. Only animals without any abnormality were used in the experiment.
Keratoepithelial detachment wounds were prepared as described in the Experimental Example 1.
The test substance was instilled every 4 hours after the keratoepithelial detachment (the first instillation was made immediately after preparation of the wound of keratoepithelial detachment).
Twelve hours after the keratoepithelial detachment, the area of the wound was measured, and its relative value was calculated by taking the area of the wound immediately after the keratoepithelial detachment as 100, and the relative value was used to assess the extent of repair. The area of the wound of keratoepithelial detachment was measured as described in the Experimental Example 1. […]

[7] = after 4 weeks, 0.3% eye drops, 30 μL/eye four times a day
[8] = before alloxan (baseline), 0.3% eye drops group

O=C(O)Cn1c(=O)n(Cc2ccc(Br)cc2F)c(=O)c2ccc(Cl)cc21 [compound of the formula (II), [3-(4-bromo-2-fluorobenzyl)-7-chloro-2,4-dioxo-1,2,3,4-tetrahydroquinazolin-1-yl]acetate]
tear secretion (Schirmer's test) [1, 7]: 7.1 ± 0.4 mm | tear secretion (Schirmer's test) [1, 8]: 8.3 ± 0.6 mm | Basal tear secretion ([2]; 0.03% eye drop group, before instillation (baseline)): 0.38 ± 0.09 mm/minute | Basal tear secretion ([2]; 0.03% eye drop, 30 μL/eye four times a day, week 1): 0.92 ± 0.17 mm/minute | Basal tear secretion ([2]; 0.03% eye drop, 30 μL/eye four times a day, week 2): 1.02 ± 0.09 mm/minute | Basal tear secretion ([2]; 0.1% eye drop group, before instillation (baseline)): 0.38 ± 0.13 mm/minute | Basal tear secretion ([2]; 0.1% eye drop, 30 μL/eye four times a day, week 1): 1.24 ± 0.14 mm/minute | Basal tear secretion ([2]; 0.1% eye drop, 30 μL/eye four times a day, week 2): 1.12 ± 0.11 mm/minute | Basal tear secretion ([2]; 0.3% eye drop group, before instillation (baseline)): 0.34 ± 0.10 mm/minute | Basal tear secretion ([2]; 0.3% eye drop, 30 μL/eye four times a day, week 1): 1.24 ± 0.16 mm/minute | Basal tear secretion ([2]; 0.3% eye drop, 30 μL/eye four times a day, week 2): 1.20 ± 0.15 mm/minute | Corneal esthesia value (number of blink reflex on 10 stimulations) ([3]; after 2 weeks, 0.3% eye drops, 30 μL/eye four times a day): 5.3 ± 0.7 number of times | Corneal esthesia value (number of blink reflex on 10 stimulations) [3, 7]: 5.1 ± 0.6 number of times | Corneal esthesia value (number of blink reflex on 10 stimulations) [3, 8]: 5.6 ± 0.3 number of times | Relative area of wound of keratoepithelial detachment 12 hours after keratoepithelial detachment [4]: 89.0 ± 2.7 % | Keratoepithelial lesion ([5]; 0.03% eye drop group, before instillation (baseline), score 0-4 by stained area (Table 5)): 2.8 ± 0.4 score | Keratoepithelial lesion ([5]; 0.03% eye drop, four times a day, week 1, score 0-4 (Table 5)): 0.5 ± 0.4 score | Keratoepithelial lesion ([5]; 0.03% eye drop, four times a day, week 2, score 0-4 (Table 5)): 0.2 ± 0.1 score | Keratoepithelial lesion ([5]; 0.1% eye drop group, before instillation (baseline), score 0-4 (Table 5)): 3.0 ± 0.6 score | Keratoepithelial lesion ([5]; 0.1% eye drop, four times a day, week 1, score 0-4 (Table 5)): 0.4 ± 0.2 score | Keratoepithelial lesion ([5]; 0.1% eye drop, four times a day, week 2, score 0-4 (Table 5)): 0.4 ± 0.2 score | Keratoepithelial lesion ([5]; 0.3% eye drop group, before instillation (baseline), score 0-4 (Table 5)): 3.0 ± 0.5 score | Keratoepithelial lesion ([5]; 0.3% eye drop, four times a day, week 1, score 0-4 (Table 5)): 0.5 ± 0.4 score | Keratoepithelial lesion ([5]; 0.3% eye drop, four times a day, week 2, score 0-4 (Table 5)): 0.1 ± 0.1 score | Relative area of wound of keratoepithelial detachment 12 hours after keratoepithelial detachment [6]: 80.8 ± 2.0 %

Reference: patent US6476039B1, “Ophthalmic composition” (R-Tech Ueno, Ltd., priority 1998, dated 2002)
